Measurements as given in patent publication US12077503B2, “Substituted cyclic amides and their use as herbicides” (FMC CORPORATION, priority 2015, dated 2024).

Key:
Format in all cases: in vivo
Kochia (Kochia scoparia) [1] = test: Test A preemergence; conditions: Bassia scoparia, pre-emergence, 240 h, 0 to 100 scale where 0 is no effect and 100 is complete control, read-out: Kochia plant response rating
Procedure, shortened: (§1)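 Seeded soil received test chemicals as a preemergence directed spray, and seedlings at one to two leaves, 2–10 cm tall, received them postemergence, in a non-phytotoxic, surfactant-containing solvent mixture. Pots were held in a greenhouse for approximately 10 d, then rated for injury from 0, no effect, to 100, complete control.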

[2] = tested on: ryegrass, Italian (Italian ryegrass, Lolium multiflorum); test: Test A preemergence; conditions: Lolium multiflorum, pre-emergence, 240 h, 0 to 100 scale where 0 is no effect and 100 is complete control, read-out: Ryegrass, Italian plant response rating
Procedure, shortened: as §1

[3] = tested on: giant foxtail (Setaria faberii); test: Test A preemergence; conditions: Setaria faberi, pre-emergence, 240 h, 0 to 100 scale where 0 is no effect and 100 is complete control, read-out: Foxtail, Giant plant response rating
Procedure, shortened: as §1

[4] = tested on: pigweed (Amaranthus retroflexus); test: Test A preemergence; conditions: Amaranthus retroflexus, pre-emergence, 240 h, 0 to 100 scale where 0 is no effect and 100 is complete control, read-out: Pigweed plant response rating
[5] = tested on: barnyardgrass (Echinochloa crus-galli); test: Test A preemergence; conditions: Echinochloa crus-galli, pre-emergence, 240 h, 0 to 100 scale where 0 is no effect and 100 is complete control, read-out: Barnyardgrass plant response rating
Procedure, shortened: as §1

[6] = tested on: ragweed (common ragweed, Ambrosia elatior); test: Test A preemergence; conditions: Ambrosia artemisiifolia, pre-emergence, 240 h, 0 to 100 scale where 0 is no effect and 100 is complete control, read-out: Ragweed plant response rating
Procedure, shortened: as §1

Kochia (Kochia scoparia) [7] = test: Test A postemergence; conditions: Bassia scoparia, post-emergence, 240 h
Procedure, shortened: as §1

[8] = tested on: ryegrass, Italian (Italian ryegrass, Lolium multiflorum); test: Test A postemergence; conditions: Lolium multiflorum, post-emergence, 240 h, 125 g ai/ha, postemergence, visual injury vs untreated controls after approx. 10 d; 0 = no effect, 100 = complete control; read-out: Ryegrass, Italian plant response rating (0 to 100 scale)
Procedure, shortened: as §1

[9] = tested on: Galium (catchweed bedstraw, Galium aparine); test: Test A postemergence; conditions: Galium, post-emergence, 240 h
Procedure, shortened: as §1

[10] = tested on: giant foxtail (Setaria faberii); test: Test A postemergence; conditions: Setaria faberi, post-emergence, 240 h
Procedure, shortened: as §1

corn (Zea mays) = test: Test A postemergence; conditions: Zea mays, post-emergence, 240 h
Procedure, shortened: as §1

[11] = tested on: pigweed (Amaranthus retroflexus); test: Test A postemergence; conditions: Amaranthus retroflexus, post-emergence, 240 h, 125 g ai/ha, postemergence, visual injury vs untreated controls after approx. 10 d; 0 = no effect, 100 = complete control; read-out: Pigweed plant response rating (0 to 100 scale)
Procedure, shortened: as §1

[12] = tested on: wheat (Triticum aestivum); test: Test A postemergence; conditions: Triticum aestivum, post-emergence, 240 h, 125 g ai/ha, postemergence, visual injury vs untreated controls after approx. 10 d; 0 = no effect, 100 = complete control; read-out: Wheat plant response rating (0 to 100 scale)
Procedure, shortened: as §1

[13] = tested on: barnyardgrass (Echinochloa crus-galli); test: Test A postemergence; conditions: Echinochloa crus-galli, post-emergence, 240 h
Procedure, shortened: as §1

[14] = tested on: blackgrass (Alopecurus myosuroides); test: Test A postemergence; conditions: Alopecurus myosuroides, post-emergence, 240 h
Procedure, shortened: as §1

[15] = tested on: ragweed (common ragweed, Ambrosia elatior); test: Test A postemergence; conditions: Ambrosia artemisiifolia, post-emergence, 240 h, 125 g ai/ha, postemergence, visual injury vs untreated controls after approx. 10 d; 0 = no effect, 100 = complete control; read-out: Ragweed plant response rating (0 to 100 scale)
Procedure, shortened: as §1

[16] = tested on: sedge, umbrella (small-flower umbrella sedge, Cyperus difformis); test: Test B flooded paddy test; conditions: Cyperus difformis, 250 g ai/ha, Flood; 0 to 100 scale where 0 is no effect and 100 is complete control; read-out: Sedge, Umbrella plant response rating
Procedure, shortened: (§2)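 Plants at 2-leaf stage flooded to 3 cm above soil, with compounds applied directly to paddy water and that depth maintained. Plants kept in greenhouse 13–15 d. Visual rating versus controls on a 0 (no effect) to 100 (complete control) scale.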

[17] = tested on: ducksalad (Heteranthera limosa); test: Test B flooded paddy test; conditions: Heteranthera limosa, 250 g ai/ha, Flood; 0 to 100 scale where 0 is no effect and 100 is complete control; read-out: Ducksalad plant response rating
Procedure, shortened: as §2

[18] = tested on: barnyardgrass (Echinochloa crus-galli); test: Test B flooded paddy test; conditions: Echinochloa crus-galli, 250 g ai/ha, Flood; 0 to 100 scale where 0 is no effect and 100 is complete control; read-out: Barnyardgrass plant response rating
Procedure, shortened: as §2

rice (Oryra sativa) = test: Test B flooded paddy test; conditions: Oryza sativa, 250 g ai/ha, Flood; 0 to 100 scale where 0 is no effect and 100 is complete control; read-out: Rice plant response rating
Procedure, shortened: as §2

[19] = 125 g ai/ha, preemergence, approx. 10 d

## CN1C[C@H](c2ccc(C(F)(F)F)c(O)c2)[C@@H](C(=O)Nc2cccc(F)c2F)C1=O [Compound 1173]
Kochia (Kochia scoparia) [1]; 31 g ai/ha, Preemergence
  pest or weed control at 31 g/ha: 0%
Kochia (Kochia scoparia) [1]; [19]
  pest or weed control at 125 g/ha: 20%
[2]; 31 g ai/ha, Preemergence
  pest or weed control at 31 g/ha: 0%
[2]; [19]
  pest or weed control at 125 g/ha: 30%
[3]; 31 g ai/ha, Preemergence
  pest or weed control at 31 g/ha: 30%
[3]; [19]
  pest or weed control at 125 g/ha: 80%
[4]; 31 g ai/ha, Preemergence
  pest or weed control at 31 g/ha: 0%
[4]; [19]
  pest or weed control at 125 g/ha: 0%
[5]; 31 g ai/ha, Preemergence
  pest or weed control at 31 g/ha: 60%
[5]; [19]
  pest or weed control at 125 g/ha: 90%
[6]; 31 g ai/ha, Preemergence
  pest or weed control at 31 g/ha: 0%
[6]; [19]
  pest or weed control at 125 g/ha: 40%
Kochia (Kochia scoparia) [7]; 125 g ai/ha, postemergence, visual injury vs untreated controls after approx. 10 d, 0 = no effect, 100 = complete control, read-out: Kochia plant response rating (0 to 100 scale)
  pest or weed control at 125 g/ha: 50%
Kochia (Kochia scoparia) [7]; Postemergence, 31 g ai/ha, visual injury after approx. 10 d, 0 to 100 scale, 0 no effect, 100 complete control, read-out: Plant response rating, Kochia
  pest or weed control at 31 g/ha: 30%
[8]
  pest or weed control at 125 g/ha: 20%
[9]; 125 g ai/ha, postemergence, visual injury vs untreated controls after approx. 10 d, 0 = no effect, 100 = complete control, read-out: Galium plant response rating (0 to 100 scale)
  pest or weed control at 125 g/ha: 50%
[9]; Postemergence, 31 g ai/ha, visual injury after approx. 10 d, 0 to 100 scale, 0 no effect, 100 complete control, read-out: Plant response rating, Galium
  pest or weed control at 31 g/ha: 0%
[10]; 125 g ai/ha, postemergence, visual injury vs untreated controls after approx. 10 d, 0 = no effect, 100 = complete control, read-out: Foxtail, Giant plant response rating (0 to 100 scale)
  pest or weed control at 125 g/ha: 80%
[10]; Postemergence, 31 g ai/ha, visual injury after approx. 10 d, 0 to 100 scale, 0 no effect, 100 complete control, read-out: Plant response rating, Foxtail, Giant
  pest or weed control at 31 g/ha: 70%
Corn (Zea mays); 125 g ai/ha, postemergence, visual injury vs untreated controls after approx. 10 d, 0 = no effect, 100 = complete control, read-out: Corn plant response rating (0 to 100 scale)
  plant injury at 125 g/ha: 0%
Corn (Zea mays); Postemergence, 31 g ai/ha, visual injury after approx. 10 d, 0 to 100 scale, 0 no effect, 100 complete control
  Corn plant response rating (crop injury, 0 = no effect, 100 = complete kill) at 31 g/ha: 0%
[11]
  pest or weed control at 125 g/ha: 50%
[12]
  plant injury at 125 g/ha: 0%
[13]; 125 g ai/ha, postemergence, visual injury vs untreated controls after approx. 10 d, 0 = no effect, 100 = complete control, read-out: Barnyardgrass plant response rating (0 to 100 scale)
  pest or weed control at 125 g/ha: 70%
[13]; Postemergence, 31 g ai/ha, visual injury after approx. 10 d, 0 to 100 scale, 0 no effect, 100 complete control, read-out: Plant response rating, Barnyardgrass
  pest or weed control at 31 g/ha: 50%
[14]; 125 g ai/ha, postemergence, visual injury vs untreated controls after approx. 10 d, 0 = no effect, 100 = complete control, read-out: Blackgrass plant response rating (0 to 100 scale)
  pest or weed control at 125 g/ha: 0%
[14]; Postemergence, 31 g ai/ha, visual injury after approx. 10 d, 0 to 100 scale, 0 no effect, 100 complete control, read-out: Plant response rating, Blackgrass
  pest or weed control at 31 g/ha: 0%
[15]
  pest or weed control at 125 g/ha: 10%
[16]
  pest or weed control at 250 g/ha: 0%
[17]
  pest or weed control at 250 g/ha: 90%
[18]
  pest or weed control at 250 g/ha: 60%
Rice (Oryra sativa)
  pest or weed control at 250 g/ha: 25%
